Reference: publication PMC4823954, “From fighting depression to conquering tumors: a novel tricyclic thiazepine compound as a tubulin polymerization inhibitor” (Cell Death & Disease, 2016)

Tests used:
Assay in all cases: KINOMEscan
Assay type in all cases: binding
Details in all cases: read-out: % Ctrl
EIF2AK1 = molecular target: T1, EIF2AK1 (Homo sapiens, UniProt Q9BQI3)
T1 construct: purchased DiscoveRx KINOMEscan
In short: (§1)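 Competition binding panel of 442 non-mutant kinases: test compound at 5 and 10 μM competed with an active-site-directed ligand for 1 h with shaking. Bound kinase was eluted with 0.5 μM ligand and quantified by qPCR; %Ctrl = (compound − positive control)/(DMSO − positive control) × 100, lower meaning tighter binding.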

EPHA3 = molecular target: T2, EPHA3 (Homo sapiens, UniProt P29320)
T2 construct: purchased DiscoveRx KINOMEscan
In short: as §1

MYLK2 = molecular target: T3, MYLK2 (Homo sapiens, UniProt Q9H1R3)
T3 construct: purchased DiscoveRx KINOMEscan
In short: as §1

MAK = molecular target: T4, MAK (Homo sapiens, UniProt P20794)
T4 construct: purchased DiscoveRx KINOMEscan
In short: as §1

CDKL2 = molecular target: T5, CDKL2 (Homo sapiens, UniProt Q92772)
T5 construct: purchased DiscoveRx KINOMEscan
In short: as §1

[1] = molecular target: T6, RSK3(Kin.Dom.2-C-terminal) (Homo sapiens, UniProt Q15349)
T6 construct: RSK3(Kin.Dom.2-C-terminal); purchased DiscoveRx KINOMEscan
In short: as §1

GRK4 = molecular target: T7, GRK4 (Homo sapiens, UniProt P32298)
T7 construct: purchased DiscoveRx KINOMEscan
In short: as §1

CSNK1A1L = molecular target: T8, CSNK1A1L (Homo sapiens, UniProt Q8N752)
T8 construct: purchased DiscoveRx KINOMEscan
T8 sequence (Q8N752 whole entry): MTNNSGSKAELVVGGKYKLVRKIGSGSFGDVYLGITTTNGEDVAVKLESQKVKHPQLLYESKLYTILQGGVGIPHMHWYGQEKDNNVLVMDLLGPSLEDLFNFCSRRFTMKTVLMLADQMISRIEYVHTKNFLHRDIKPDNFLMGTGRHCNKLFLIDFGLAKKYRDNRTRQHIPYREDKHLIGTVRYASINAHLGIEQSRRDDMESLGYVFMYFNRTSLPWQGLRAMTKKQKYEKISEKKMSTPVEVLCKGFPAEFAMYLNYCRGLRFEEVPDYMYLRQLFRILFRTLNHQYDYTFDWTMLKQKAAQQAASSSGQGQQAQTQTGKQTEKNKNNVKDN
In short: as §1

MINK = molecular target: T9, MINK (Homo sapiens, UniProt Q8N4C8)
T9 construct: purchased DiscoveRx KINOMEscan
In short: as §1

NEK11 = molecular target: T10, NEK11 (Homo sapiens, UniProt Q8NG66)
T10 construct: purchased DiscoveRx KINOMEscan
In short: as §1

STK36 = molecular target: T11, STK36 (Homo sapiens, UniProt Q9NRP7)
T11 construct: purchased DiscoveRx KINOMEscan
In short: as §1

NEK7 = molecular target: T12, NEK7 (Homo sapiens, UniProt Q8TDX7)
T12 construct: purchased DiscoveRx KINOMEscan
T12 sequence (Q8TDX7 whole entry): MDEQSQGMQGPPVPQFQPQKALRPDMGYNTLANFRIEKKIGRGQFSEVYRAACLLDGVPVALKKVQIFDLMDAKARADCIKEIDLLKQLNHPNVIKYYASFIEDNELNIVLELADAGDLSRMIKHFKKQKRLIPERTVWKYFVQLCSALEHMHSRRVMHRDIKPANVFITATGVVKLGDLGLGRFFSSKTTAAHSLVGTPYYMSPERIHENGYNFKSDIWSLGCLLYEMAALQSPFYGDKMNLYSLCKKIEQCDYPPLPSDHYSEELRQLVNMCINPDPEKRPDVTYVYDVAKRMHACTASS
In short: as §1

TAOK3 = molecular target: T13, TAOK3 (Homo sapiens, UniProt Q9H2K8)
T13 construct: purchased DiscoveRx KINOMEscan
In short: as §1

PIK3CA = molecular target: T14, PIK3CA (Homo sapiens, UniProt P42336)
T14 construct: purchased DiscoveRx KINOMEscan
T14 sequence (P42336 whole entry): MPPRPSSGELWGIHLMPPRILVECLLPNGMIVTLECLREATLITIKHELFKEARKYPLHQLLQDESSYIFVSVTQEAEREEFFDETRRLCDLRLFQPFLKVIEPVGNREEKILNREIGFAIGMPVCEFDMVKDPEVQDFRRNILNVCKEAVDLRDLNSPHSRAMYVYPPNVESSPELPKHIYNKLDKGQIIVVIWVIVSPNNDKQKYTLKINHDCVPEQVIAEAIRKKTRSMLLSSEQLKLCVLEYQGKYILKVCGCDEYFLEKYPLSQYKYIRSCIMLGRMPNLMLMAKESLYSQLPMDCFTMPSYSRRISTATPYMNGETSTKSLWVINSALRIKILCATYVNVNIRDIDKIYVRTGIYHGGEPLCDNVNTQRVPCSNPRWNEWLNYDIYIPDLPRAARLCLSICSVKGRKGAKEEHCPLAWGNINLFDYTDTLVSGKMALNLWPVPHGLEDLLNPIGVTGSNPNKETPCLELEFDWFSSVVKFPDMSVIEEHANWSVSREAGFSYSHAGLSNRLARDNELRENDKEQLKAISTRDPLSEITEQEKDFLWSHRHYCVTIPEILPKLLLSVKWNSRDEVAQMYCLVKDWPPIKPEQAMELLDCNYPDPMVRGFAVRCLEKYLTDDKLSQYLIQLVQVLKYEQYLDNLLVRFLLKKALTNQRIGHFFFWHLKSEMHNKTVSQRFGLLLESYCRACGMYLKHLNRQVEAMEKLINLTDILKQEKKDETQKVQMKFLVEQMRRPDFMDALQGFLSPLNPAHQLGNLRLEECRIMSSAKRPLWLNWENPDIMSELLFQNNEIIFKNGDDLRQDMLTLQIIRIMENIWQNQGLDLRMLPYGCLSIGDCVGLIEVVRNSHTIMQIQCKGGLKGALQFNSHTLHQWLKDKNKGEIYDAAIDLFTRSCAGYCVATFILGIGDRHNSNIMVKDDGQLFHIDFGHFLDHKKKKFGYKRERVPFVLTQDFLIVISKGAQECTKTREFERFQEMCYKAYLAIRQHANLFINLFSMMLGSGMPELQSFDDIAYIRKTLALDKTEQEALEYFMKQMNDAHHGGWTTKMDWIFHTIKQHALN
In short: as §1

AKT1 = molecular target: T15, AKT1 (Homo sapiens, UniProt P31749)
T15 construct: purchased DiscoveRx KINOMEscan
T15 sequence (P31749 whole entry): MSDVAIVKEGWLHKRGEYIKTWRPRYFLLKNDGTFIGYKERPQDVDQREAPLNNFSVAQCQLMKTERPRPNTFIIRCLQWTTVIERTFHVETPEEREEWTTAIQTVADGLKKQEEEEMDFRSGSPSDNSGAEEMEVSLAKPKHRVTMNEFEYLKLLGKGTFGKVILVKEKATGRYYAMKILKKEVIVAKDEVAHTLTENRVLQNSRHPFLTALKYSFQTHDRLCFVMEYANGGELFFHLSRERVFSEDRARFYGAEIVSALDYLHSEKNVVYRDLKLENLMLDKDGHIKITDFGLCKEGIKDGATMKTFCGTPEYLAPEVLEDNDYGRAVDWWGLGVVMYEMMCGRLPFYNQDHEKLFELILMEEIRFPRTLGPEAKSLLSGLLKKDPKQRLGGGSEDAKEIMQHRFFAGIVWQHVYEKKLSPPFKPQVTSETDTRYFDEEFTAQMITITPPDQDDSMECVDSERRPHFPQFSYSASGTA
In short: as §1

CDK7 = molecular target: T16, CDK7 (Homo sapiens, UniProt P50613)
T16 construct: purchased DiscoveRx KINOMEscan
In short: as §1

LRRK2 = molecular target: T17, LRRK2 (Homo sapiens, UniProt Q5S007)
T17 construct: purchased DiscoveRx KINOMEscan
In short: as §1

p38-beta = molecular target: T18, p38-beta (Homo sapiens, UniProt Q15759)
T18 construct: purchased DiscoveRx KINOMEscan
In short: as §1

PIK3CA(H1047Y) = molecular target: T19, PIK3CA(H1047Y) (Homo sapiens, UniProt P42336, H1047Y)
T19 construct: purchased DiscoveRx KINOMEscan
T19 sequence (P42336 whole entry H1047Y): as the sequence (P42336 whole entry) above, with H1047Y counted along it

[2] = molecular target: T20, RSK4(Kin.Dom.2-C-terminal) (Homo sapiens, UniProt Q9UK32)
T20 construct: RSK4(Kin.Dom.2-C-terminal); purchased DiscoveRx KINOMEscan
In short: as §1

VRK2 = molecular target: T21, VRK2 (Homo sapiens, UniProt Q86Y07)
T21 construct: purchased DiscoveRx KINOMEscan
In short: as §1

[3] = molecular target: T22, ABL1(H396P)-nonphosphorylated (Homo sapiens, UniProt P00519, H396P)
T22 construct: purchased DiscoveRx KINOMEscan

MARK1 = molecular target: T23, MARK1 (Homo sapiens, UniProt Q9P0L2)
T23 construct: purchased DiscoveRx KINOMEscan
T23 sequence (Q9P0L2 whole entry): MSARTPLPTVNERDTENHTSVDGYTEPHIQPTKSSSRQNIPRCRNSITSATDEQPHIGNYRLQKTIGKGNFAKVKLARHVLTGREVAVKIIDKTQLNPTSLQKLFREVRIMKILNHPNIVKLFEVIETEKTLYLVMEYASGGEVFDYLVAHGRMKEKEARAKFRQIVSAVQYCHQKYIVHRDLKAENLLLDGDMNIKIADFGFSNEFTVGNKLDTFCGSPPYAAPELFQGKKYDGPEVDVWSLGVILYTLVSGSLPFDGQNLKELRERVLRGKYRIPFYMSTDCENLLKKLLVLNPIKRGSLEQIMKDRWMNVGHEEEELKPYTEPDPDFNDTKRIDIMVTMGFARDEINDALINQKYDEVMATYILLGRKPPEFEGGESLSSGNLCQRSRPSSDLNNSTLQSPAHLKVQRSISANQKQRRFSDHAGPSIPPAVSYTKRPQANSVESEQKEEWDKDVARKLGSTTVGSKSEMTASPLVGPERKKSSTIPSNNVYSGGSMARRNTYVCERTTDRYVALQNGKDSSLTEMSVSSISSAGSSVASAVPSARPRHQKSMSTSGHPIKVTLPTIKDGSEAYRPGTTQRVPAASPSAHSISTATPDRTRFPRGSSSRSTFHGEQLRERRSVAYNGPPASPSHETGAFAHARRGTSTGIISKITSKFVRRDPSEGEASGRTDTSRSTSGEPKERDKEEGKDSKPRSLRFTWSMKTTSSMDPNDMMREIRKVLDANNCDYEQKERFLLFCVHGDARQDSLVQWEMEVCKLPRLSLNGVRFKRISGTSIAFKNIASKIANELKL
In short: as §1

MAPKAPK2 = molecular target: T24, MAPKAPK2 (Homo sapiens, UniProt P49137)
T24 construct: purchased DiscoveRx KINOMEscan
In short: as §1

p38-gamma = molecular target: T25, p38-gamma (Homo sapiens, UniProt P53778)
T25 construct: purchased DiscoveRx KINOMEscan
T25 sequence (P53778 whole entry): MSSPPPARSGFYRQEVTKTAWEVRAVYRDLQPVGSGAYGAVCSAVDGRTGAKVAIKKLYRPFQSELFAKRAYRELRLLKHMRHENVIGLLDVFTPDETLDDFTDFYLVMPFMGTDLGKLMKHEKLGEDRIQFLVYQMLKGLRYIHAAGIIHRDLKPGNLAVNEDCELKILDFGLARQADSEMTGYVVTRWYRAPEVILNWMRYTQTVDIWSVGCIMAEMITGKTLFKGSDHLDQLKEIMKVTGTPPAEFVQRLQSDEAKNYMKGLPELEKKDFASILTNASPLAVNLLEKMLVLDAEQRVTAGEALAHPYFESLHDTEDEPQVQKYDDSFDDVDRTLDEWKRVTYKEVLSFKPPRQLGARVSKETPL
In short: as §1

ACVR1 = molecular target: T26, ACVR1 (Homo sapiens, UniProt Q04771)
T26 construct: purchased DiscoveRx KINOMEscan
In short: as §1

IKK-beta = molecular target: T27, IKK-beta (Homo sapiens, UniProt O14920)
T27 construct: purchased DiscoveRx KINOMEscan
T27 sequence (O14920 whole entry): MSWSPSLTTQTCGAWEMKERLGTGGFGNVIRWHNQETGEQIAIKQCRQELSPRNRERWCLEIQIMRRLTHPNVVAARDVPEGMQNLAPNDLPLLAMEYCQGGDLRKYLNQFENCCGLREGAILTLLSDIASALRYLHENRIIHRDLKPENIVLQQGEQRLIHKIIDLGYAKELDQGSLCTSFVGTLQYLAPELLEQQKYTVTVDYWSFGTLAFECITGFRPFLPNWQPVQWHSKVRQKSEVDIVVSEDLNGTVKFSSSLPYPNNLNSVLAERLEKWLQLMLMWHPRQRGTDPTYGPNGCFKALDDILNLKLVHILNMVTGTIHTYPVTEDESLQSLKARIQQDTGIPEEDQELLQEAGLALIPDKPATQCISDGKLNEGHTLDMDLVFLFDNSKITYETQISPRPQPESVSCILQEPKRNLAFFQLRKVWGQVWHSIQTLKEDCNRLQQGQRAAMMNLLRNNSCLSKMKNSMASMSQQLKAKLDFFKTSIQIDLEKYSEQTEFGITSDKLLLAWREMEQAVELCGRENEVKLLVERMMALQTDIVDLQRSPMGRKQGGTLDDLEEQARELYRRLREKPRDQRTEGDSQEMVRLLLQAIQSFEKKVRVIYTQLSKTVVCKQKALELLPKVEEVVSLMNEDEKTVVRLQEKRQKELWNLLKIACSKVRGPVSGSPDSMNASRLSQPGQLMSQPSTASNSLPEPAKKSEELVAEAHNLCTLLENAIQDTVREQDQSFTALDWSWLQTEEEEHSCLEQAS
In short: as §1

ZAP70 = molecular target: T28, ZAP70 (Homo sapiens, UniProt P43403)
T28 construct: purchased DiscoveRx KINOMEscan
In short: as §1

YANK2 = molecular target: T29, YANK2 (Homo sapiens, UniProt Q9NY57)
T29 construct: purchased DiscoveRx KINOMEscan
In short: as §1

T1 sequence (Q9BQI3 whole entry): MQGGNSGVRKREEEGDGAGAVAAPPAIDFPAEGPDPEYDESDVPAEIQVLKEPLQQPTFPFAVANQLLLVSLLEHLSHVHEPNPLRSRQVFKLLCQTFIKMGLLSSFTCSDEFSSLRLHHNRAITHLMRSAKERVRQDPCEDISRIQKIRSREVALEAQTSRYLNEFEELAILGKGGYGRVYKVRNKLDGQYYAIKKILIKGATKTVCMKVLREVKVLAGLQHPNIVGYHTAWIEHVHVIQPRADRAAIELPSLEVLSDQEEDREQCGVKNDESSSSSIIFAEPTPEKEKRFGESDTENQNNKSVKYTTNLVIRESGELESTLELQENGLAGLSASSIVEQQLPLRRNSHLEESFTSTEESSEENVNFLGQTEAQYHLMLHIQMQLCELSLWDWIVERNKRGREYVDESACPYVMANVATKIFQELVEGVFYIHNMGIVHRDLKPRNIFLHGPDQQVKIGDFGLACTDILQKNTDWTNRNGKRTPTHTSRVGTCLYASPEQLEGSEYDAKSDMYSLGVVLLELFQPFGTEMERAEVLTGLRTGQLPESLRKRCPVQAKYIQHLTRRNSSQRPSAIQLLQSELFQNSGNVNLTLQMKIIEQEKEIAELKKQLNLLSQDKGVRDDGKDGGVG

Structure (SMILES): Cc1ccc(C2=Nc3cccnc3S(=O)(=O)c3ccccc32)cc1 [TBPT, 6-(p-tolyl)benzo[f] pyrido[2,3-b][1,4] thiazepine 11,11-dioxide]
- remaining binding at 5 µM (EIF2AK1; 5 μM): 100%
- remaining binding at 10 µM (EIF2AK1; 10 μM): 100%
- remaining binding at 5 µM (EPHA3; 5 μM): 80%
- remaining binding at 10 µM (EPHA3; 10 μM): 100%
- remaining binding at 5 µM (MYLK2; 5 μM): 100%
- remaining binding at 10 µM (MYLK2; 10 μM): 82%
- remaining binding at 5 µM (MAK; 5 μM): 94%
- remaining binding at 10 µM (MAK; 10 μM): 100%
- remaining binding at 5 µM (CDKL2; 5 μM): 95%
- remaining binding at 10 µM (CDKL2; 10 μM): 100%
- remaining binding at 5 µM ([1]; 5 μM): 100%
- remaining binding at 10 µM ([1]; 10 μM): 100%
- remaining binding at 5 µM (GRK4; 5 μM): 100%
- remaining binding at 10 µM (GRK4; 10 μM): 95%
- remaining binding at 5 µM (CSNK1A1L; 5 μM): 100%
- remaining binding at 10 µM (CSNK1A1L; 10 μM): 91%
- remaining binding at 5 µM (MINK; 5 μM): 89%
- remaining binding at 10 µM (MINK; 10 μM): 83%
- remaining binding at 5 µM (NEK11; 5 μM): 43%
- remaining binding at 10 µM (NEK11; 10 μM): 100%
- remaining binding at 5 µM (STK36; 5 μM): 84%
- remaining binding at 10 µM (STK36; 10 μM): 100%
- remaining binding at 5 µM (NEK7; 5 μM): 100%
- remaining binding at 10 µM (NEK7; 10 μM): 89%
- remaining binding at 5 µM (TAOK3; 5 μM): 89%
- remaining binding at 10 µM (TAOK3; 10 μM): 100%
- remaining binding at 5 µM (PIK3CA; 5 μM): 100%
- remaining binding at 10 µM (PIK3CA; 10 μM): 82%
- remaining binding at 5 µM (AKT1; 5 μM): 84%
- remaining binding at 10 µM (AKT1; 10 μM): 100%
- remaining binding at 5 µM (CDK7; 5 μM): 83%
- remaining binding at 10 µM (CDK7; 10 μM): 100%
- remaining binding at 5 µM (LRRK2; 5 μM): 94%
- remaining binding at 10 µM (LRRK2; 10 μM): 100%
- remaining binding at 5 µM (p38-beta; 5 μM): 100%
- remaining binding at 10 µM (p38-beta; 10 μM): 76%
- remaining binding at 5 µM (PIK3CA(H1047Y); 5 μM): 95%
- remaining binding at 10 µM (PIK3CA(H1047Y); 10 μM): 100%
- remaining binding at 5 µM ([2]; 5 μM): 94%
- remaining binding at 10 µM ([2]; 10 μM): 57%
- remaining binding at 5 µM (VRK2; 5 μM): 100%
- remaining binding at 10 µM (VRK2; 10 μM): 69%
- remaining binding at 5 µM ([3]; 5 μM): 62%
- remaining binding at 10 µM ([3]; 10 μM): 77%
- remaining binding at 5 µM (MARK1; 5 μM): 89%
- remaining binding at 10 µM (MARK1; 10 μM): 100%
- remaining binding at 5 µM (MAPKAPK2; 5 μM): 100%
- remaining binding at 10 µM (MAPKAPK2; 10 μM): 100%
- remaining binding at 5 µM (p38-gamma; 5 μM): 100%
- remaining binding at 10 µM (p38-gamma; 10 μM): 88%
- remaining binding at 5 µM (ACVR1; 5 μM): 100%
- remaining binding at 10 µM (ACVR1; 10 μM): 100%
- remaining binding at 5 µM (IKK-beta; 5 μM): 84%
- remaining binding at 10 µM (IKK-beta; 10 μM): 98%
- remaining binding at 5 µM (ZAP70; 5 μM): 100%
- remaining binding at 10 µM (ZAP70; 10 μM): 99%
- remaining binding at 5 µM (YANK2; 5 μM): 99%
- remaining binding at 10 µM (YANK2; 10 μM): 100%
